According to patent US11655225B2, “Antimycobacterial heterocyclic amides” (Crestone, Inc., priority 2018, dated 2023):
Converted amounts (≈) assume the structure as drawn.

Tested on: isoniazid-, rifampin-, and fluoroquinolone-resistant M. tuberculosis
Assay: microbe, parasite or virus in culture
Type: cell-based
Conditions: for MIC: Mycobacterium tuberculosis; for activity against resistant strains: isoniazid-, rifampin-, and fluoroquinolone-resistant M. tuberculosis

Row | SMILES | MIC | activity against resistant strains
1 | CC12CCCC(C(=O)Nc3nc4cc(Cl)cc(Cl)c4s3)(CCC1)C2 [Example 2, N-(5,7-dichloro-1,3-benzothiazol-2-yl)-5-methylbicyclo[3.3.1]nonane-1-carboxamide] | 0.03 to 4 µg/mL (≈ 0.0783 to 10.4 µM) | active
2 | CC12CCCC(C(=O)Nc3nc4ccc(OC(F)(F)F)cc4s3)(CCC1)C2 [Example 5, 5-methyl-N-[6-(trifluoromethoxy)-1,3-benzothiazol-2-yl]bicyclo[3.3.1]nonane-1-carboxamide] | 0.03 to 4 µg/mL (≈ 0.0753 to 10 µM) | active
3 | CC12CC3CC(C)(C1)CC(C(=O)Nc1nc4ccc(OC(F)(F)F)cc4s1)(C3)C2 [Example 45, 3,5-dimethyl-N-[6-(trifluoromethoxy)-1,3-benzothiazol-2-yl]adamantane-1-carboxamide] | 0.03 to 4 µg/mL (≈ 0.0707 to 9.42 µM) | active
4 | CC1CC(C(=O)Nc2nc3ccc(OC(F)(F)F)cc3s2)CC(C)(C)C1 (stereo not shown) [Example 46, 3,3,5-trimethyl-N-[6-(trifluoromethoxy)-1,3-benzothiazol-2-yl]cyclohexane-1-carboxamide] | 0.03 to 4 µg/mL (≈ 0.0776 to 10.4 µM) | active
5 | CC1CC(C(=O)Nc2nc3c(F)cc(F)cc3s2)CC(C)(C)C1 (stereo not shown) [Example 80, N-(4,6-difluoro-1,3-benzothiazol-2-yl)-3,3,5-trimethylcyclohexane-1-carboxamide] | 0.03 to 4 µg/mL (≈ 0.0886 to 11.8 µM) | active
